Tested on: mechanically ventilated, adult patients admitted to the intensive care unit (ICU)
Assay: Example 2: prospective, randomized, controlled study, morbidity analysis
Assay type: in vivo, human
Settings: for Patients with critical illness polyneuropathy - total no.: EMG-screened patients; for Number of transfusions per patient (median): admission day not taken into account
Text: All mechanically ventilated, adult patients admitted to the intensive care unit (ICU) were eligible for inclusion.
At baseline, demographic, diagnostic and therapeutic information as well as information necessary to determine severity of illness and utilization of ICU resources were obtained from each patient (Table 1). These included APACHE-II (Acute Physiology and Chronic Health Evaluation) score with higher values indicating more severe illness (see Knaus) and simplified Therapeutic Intervention Scoring System (TISS-28) with higher values indicating a higher number of therapeutic interventions (see Reis Miranda & Keene). APACHE II and TISS scores were calculated daily from ICU admission to discharge or death.
A blood sample was taken upon ICU admission and daily at 06:00 h until discharge from ICU or death. On-admission and daily morning, whole blood glucose level as well as daily maximal and minimal glycemia were analysed. Analyses on the 06:00 h sample also included clinical chemistry, hematology and markers of inflammation.
Blood cultures were taken whenever continously monitored central body temperature acutely rose above 38.5° C. Results from all blood cultures were interpreted by the same blinded investigator. An episode of bacteremia, fungemia or mycobacteremia was defined by the first positive blood culture in a series. To identify a blood stream infection with coagulase-negative staphylocci, identical strains (compared by antibiogram) of microorganisms in two or more positive blood cultures were required (see Weinstein 1997 and Weinstein 1998).
In patients treated in ICU for more than one week, a weekly electromyography (EMG) was performed to screen for Critical Illness Polyneuropathy. EMGs were interpreted by the same electrophysiologist who was blinded for randomization. In case of ICU death, a post-mortem examination was performed to confirm the presumed cause of death.
The primary outcome measure was death from all causes during intensive care. Secondary outcome measures were in-hospital mortality, incidence of prolonged intensive care dependency and need for ICU re-admission, need for vital organ system support comprising mechanical ventilatory support, renal replacement therapy (continuous or intermittent hemofiltration or dialysis), inotropic or vasopressor support, incidence of critical illness polyneuropathy, the degree of inflammation, incidence of blood stream infections and use of antibiotics, transfusion requirements and incidence of hyperbilirubinemia. Furthermore, use of intensive care resources was analysed by cumulative TISS scores. In order to accurately and objectively assess duration of ICU stay, which is often influenced by non-patient related factors such as bed availability on regular wards, patients were defined ‘dischargable from ICU’ when they were no longer in need of vital organ system support and received at least ⅔rd of the caloric need through the normal enteral route or earlier when actually sent to a ward.
Baseline and outcome variables were compared using Student's t-test, Chi-square test and Mann-Whitney-U test, as appropriate. Death odds ratios were calculated using multivariate logistic regression analysis. The effect on time of in-hospital death was assessed by Kaplan-Meier analysis and logrank (Mantel-Cox) significance testing. Patients discharged from the hospital were considered as survivors. Data are presented as percentages, means ±SD or medians (25th-75th percentile) unless indicated otherwise.

[1] = IIS, ICU stay >5 days (N = 451)
[2] = IIS, ICU stay ≤5 days (N = 1097)
[3] = RIS, ICU stay >5 days (N = 451)
[4] = RIS, ICU stay ≤5 days (N = 1097)

## insulin
IIS
  >3 days C-reactive protein level above 150 mg/L (%): (15%)
  >3 days C-reactive protein level above 150 mg/L - total no.: 119
  >3 days central body temperature ≤36° C. or […]38° C. (%): (21%)
  >3 days central body temperature ≤36° C. or […]38° C. - total no.: 164
  >3 days white blood cell count ≤4000/μL or […]12000/μL (%): (16%)
  >3 days white blood cell count ≤4000/μL or […]12000/μL - total no.: 121
  Lowest level of hemoglobin (g/dL) when transfused (median): 8.3 g/dL
  Number of patients requiring red cell transfusion (%): (29%)
  Number of patients requiring red cell transfusion - total no: 219
  Patients needing dialysis or CVVH (%): (4.8%)
  Patients needing dialysis or CVVH - total no: 37
  Patients on inotropic/vasopressor treatment (%): (75%)
  Patients on inotropic/vasopressor treatment - total no.: 574
  Patients requiring >7 days intensive care (%): (20.5%)
  Patients requiring >7 days intensive care - total no: 157
  Patients requiring >7 days ventilatory support (%): (16.9%)
  Patients requiring >7 days ventilatory support - total no.: 125
  Patients requiring >14 days intensive care (%): (11.4%)
  Patients requiring >14 days intensive care - total no: 87
  Patients requiring >14 days ventilatory support (%): (7.7%)
  Patients requiring >14 days ventilatory support - total no.: 57
  Patients requiring >21 days intensive care (%): (6.5%)
  Patients requiring >21 days intensive care - total no: 50
  Patients requiring >21 days ventilatory support (%): (5.0%)
  Patients requiring >21 days ventilatory support - total no.: 37
  Patients treated with antibiotics for >10 days (%): (11.2%)
  Patients treated with antibiotics for >10 days - total no.: 86
  Patients with an ICU stay of >5 days: 27%
  Patients with blood stream infections during intensive care (%): (4.2%)
  Patients with blood stream infections during intensive care - total no: 32
  Patients with critical illness polyneuropathy (% of EMG-screened): (29%)
  Patients with hyperbilirubinemia (peak bilirubin >2 mg/dL) (%): (22%)
  Patients with hyperbilirubinemia (peak bilirubin >2 mg/dL) - total no.: 171
  Peak plasma creatinine >2.5 mg/dL (%): (9.0%)
  Peak plasma creatinine >2.5 mg/dL - total no.: 69
  Peak plasma urea concentration >150 mg/dL (%): (7.7%)
  Peak plasma urea concentration >150 mg/dL - total no.: 59
  Repetitive (>2) positive EMGs (% of EMG screened): (7%)
  Repetitive (>2) positive EMGs - total no: 11
  Patients with critical illness polyneuropathy - total no.: 47
  Number of transfusions per patient (median): 1
IIS vs RIS
  >3 days C-reactive protein level above 150 mg/L, NNT: 17
  >3 days C-reactive protein level above 150 mg/L, RRR (%): 29%
  >3 days abnormal central body temperature, NNT: 20
  >3 days abnormal central body temperature, RRR (%): 19%
  >3 days abnormal white blood cell count, NNT: 20
  >3 days abnormal white blood cell count, RRR (%): 24%
  In-hospital stay, difference between the two study groups: not detectably different
  Patients needing dialysis or CVVH, NNT: 29
  Patients needing dialysis or CVVH, RRR (%): 42%
  Patients on inotropic/vasopressor treatment, RRR (%): =
  Patients requiring >7 days intensive care, NNT: 17
  Patients requiring >7 days intensive care, RRR (%): 22%
  Patients requiring >7 days ventilatory support, NNT: 16
  Patients requiring >7 days ventilatory support, RRR (%): 27%
  Patients requiring >14 days intensive care, NNT: 23
  Patients requiring >14 days intensive care, RRR (%): 27%
  Patients requiring >14 days ventilatory support, NNT: 22
  Patients requiring >14 days ventilatory support, RRR (%): 37%
  Patients requiring >21 days intensive care, NNT: 33
  Patients requiring >21 days intensive care, RRR (%): 32%
  Patients requiring >21 days ventilatory support, NNT: 31
  Patients requiring >21 days ventilatory support, RRR (%): 39%
  Patients treated with antibiotics for >10 days, NNT: 17
  Patients treated with antibiotics for >10 days, RRR (%): 35%
  Patients with blood stream infections, NNT: 28
  Patients with blood stream infections, RRR (%): 46%
  Patients with critical illness polyneuropathy, RRR (%): 44%
  Patients with hyperbilirubinemia, NNT: 20
  Patients with hyperbilirubinemia, RRR (%): 19%
  Peak plasma creatinine >2.5 mg/dL, NNT: 31
  Peak plasma creatinine >2.5 mg/dL, RRR (%): 26%
  Peak plasma urea concentration >150 mg/dL, NNT: 29
  Peak plasma urea concentration >150 mg/dL, RRR (%): 31%
  Repetitive (>2) positive EMGs, NNT: 8
  Repetitive (>2) positive EMGs, RRR (%): 63%
IIS vs RIS, among screened patients
  Patients with critical illness polyneuropathy, NNT: 4
IIS vs RIS, long-stay patients
  Reduction in median cumulative TISS score: 20%
[1]
  Cumulative TISS (median): 431
  Days on ICU (median): 12 days
  Days on mechanical ventilatory support (median): 10 days
[2]
  Cumulative TISS (median): 85
  Days on ICU (median): 2 days
  Days on mechanical ventilatory support (median): 1 days
RIS
  >3 days C-reactive protein level above 150 mg/L (%): (21%)
  >3 days C-reactive protein level above 150 mg/L - total no.: 162
  >3 days central body temperature ≤36° C. or […]38° C. (%): (26%)
  >3 days central body temperature ≤36° C. or […]38° C. - total no.: 206
  >3 days white blood cell count ≤4000/μL or […]12000/μL (%): (21%)
  >3 days white blood cell count ≤4000/μL or […]12000/μL - total no.: 166
  Lowest level of hemoglobin (g/dL) when transfused (median): 8.1 g/dL
  Number of patients requiring red cell transfusion (%): (31%)
  Number of patients requiring red cell transfusion - total no: 243
  Patients needing dialysis or CVVH (%): (8.2%)
  Patients needing dialysis or CVVH - total no: 64
  Patients on inotropic/vasopressor treatment (%): (75%)
  Patients on inotropic/vasopressor treatment - total no.: 586
  Patients requiring >7 days intensive care (%): (26.3%)
  Patients requiring >7 days intensive care - total no: 206
  Patients requiring >7 days ventilatory support (%): (23.2%)
  Patients requiring >7 days ventilatory support - total no.: 175
  Patients requiring >14 days intensive care (%): (15.7%)
  Patients requiring >14 days intensive care - total no: 123
  Patients requiring >14 days ventilatory support (%): (12.3%)
  Patients requiring >14 days ventilatory support - total no.: 93
  Patients requiring >21 days intensive care (%): (9.5%)
  Patients requiring >21 days intensive care - total no: 74
  Patients requiring >21 days ventilatory support (%): (8.2%)
  Patients requiring >21 days ventilatory support - total no.: 62
  Patients treated with antibiotics for >10 days (%): (17.1%)
  Patients treated with antibiotics for >10 days - total no.: 134
  Patients with an ICU stay of >5 days: 31%
  Patients with blood stream infections during intensive care - total no: 61
  Patients with critical illness polyneuropathy (% of EMG-screened): (52%)
  Patients with hyperbilirubinemia (peak bilirubin >2 mg/dL) (%): (27%)
  Patients with hyperbilirubinemia (peak bilirubin >2 mg/dL) - total no.: 209
  Peak plasma creatinine >2.5 mg/dL (%): (12.2%)
  Peak plasma creatinine >2.5 mg/dL - total no.: 96
  Peak plasma urea concentration >150 mg/dL (%): (11.2%)
  Peak plasma urea concentration >150 mg/dL - total no.: 88
  Repetitive (>2) positive EMGs (% of EMG screened): (19%)
  Repetitive (>2) positive EMGs - total no: 39
  Patients with critical illness polyneuropathy - total no.: 110
  Number of transfusions per patient (median): 2
[3]
  Cumulative TISS (median): 536
  Days on ICU (median): 15 days
  Days on mechanical ventilatory support (median): 12 days
[4]
  Cumulative TISS (median): 84
  Days on ICU (median): 2 days
  Days on mechanical ventilatory support (median): 1 days
Both study groups (IIS and RIS)
  TISS score on the last day of study (median, IQR): 30 (26-38)
Similar in both groups (IIS and RIS)
  ICU re-admission rate: 2.1%

Reference: patent US7446091B2, “Methods and preparations for curing clinically ill patients” (Novo Nordisk A/S, priority 2000, dated 2008)
